Reference: patent publication US10597388B2, “Pyridazinone herbicides” (FMC CORPORATION, priority 2014, dated 2020)

Columns and labels:
Assay in all cases: Test D controlled growth environment herbicide test, pre- and postemergence
Type in all cases: in vivo
[1] = tested on: Russian thistle (Salsola kali)
Procedure, shortened: (§1)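 Pre-emergence: seeds sown in silt loam soil were sprayed with compound in a non-phytotoxic solvent mix containing surfactant. Post-emergence: plants at 2 to 18 cm (1- to 4-leaf stage) in peat moss/vermiculite medium got the same formulation. Visual 0–100 rating versus controls after 14 to 21 d.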

[2] = tested on: bluegrass (annual bluegrass, Poa annua)
Procedure, shortened: as §1

[3] = tested on: buckwheat, wild (wild buckwheat, Polygonum convolvulus)
Procedure, shortened: as §1

[4] = tested on: canarygrass (Phalaris minor)
Procedure, shortened: as §1

[5] = tested on: field violet (Viola arvensis)
Procedure, shortened: as §1

[6] = tested on: galium (catchweed bedstraw, Galium aparine)
Procedure, shortened: as §1

kochia (Kochia scoparia) = tested on: kochia (Kochia scoparia)
Procedure, shortened: as §1

[7] = tested on: mustard, wild (wild mustard, Sinapis arvensis)
Procedure, shortened: as §1

[8] = tested on: oilseed rape (Brassica napus)
Procedure, shortened: as §1

[9] = tested on: pigweed (Amaranthus retroflexus)
Procedure, shortened: as §1

[10] = tested on: radish, wild (wild radish, Raphanus raphanistrum)
Procedure, shortened: as §1

[11] = tested on: speedwell (bird's-eye speedwell, Veronica persica)
Procedure, shortened: as §1

[12] = tested on: windgrass (Apera spica-venti)
Procedure, shortened: as §1

[13] = Postemergence, 31 g ai/ha, scale 0 to 100 (0 no effect, 100 complete control)
[14] = Postemergence, 125 g ai/ha, visual rating on scale 0 (no effect) to 100 (complete control), 14 to 21 d
[15] = Postemergence, 250 g ai/ha, scale 0 to 100 (0 no effect, 100 complete control)
[16] = Preemergence, 62 g ai/ha, scale 0 to 100 (0 no effect, 100 complete control)
[17] = Preemergence, 125 g ai/ha, scale 0 to 100 (0 no effect, 100 complete control)
[18] = Preemergence, 250 g ai/ha, scale 0 to 100 (0 no effect, 100 complete control)
[19] = postemergence, 62 g ai/ha, scale 0 to 100, 0 no effect, 100 complete control

CCC(=O)Oc1c(C)nn(C)c(=O)c1-c1c(C)sc2c(C)cc(C)cc12 [Compound 28]
80: Plant response rating, Russian Thistle [1, 14] | Plant response rating, Canarygrass [4, 14] | Field Violet plant response rating [5, 13] | Plant response rating, Windgrass [12, 19]
100: Buckwheat, Wild plant response rating [3, 13] | Plant response rating, Buckwheat, Wild [3, 14] | Plant response rating, Buckwheat, Wild [3, 15] | Plant response rating, Buckwheat, Wild [3, 18] | Plant response rating, Buckwheat, Wild [3, 19] | Plant response rating, Field Violet [5, 17] | Plant response rating, Field Violet [5, 18] | Galium plant response rating [6, 13] | Plant response rating, Galium [6, 14] | Plant response rating, Galium [6, 15] | Plant response rating, Galium [6, 18] | Plant response rating, Galium [6, 19] | Plant response rating, Pigweed [9, 14] | Plant response rating, Pigweed [9, 16] | Plant response rating, Pigweed [9, 17] | Plant response rating, Pigweed [9, 18] | Plant response rating, Radish, Wild [10, 19] | Plant response rating, Speedwell [11, 14] | Plant response rating, Speedwell [11, 15] | Plant response rating, Speedwell [11, 18] | Plant response rating, Windgrass [12, 18]
10: Plant response rating (scale of 0 to 100), Mustard, Wild ([7]; Preemergence, 31 g ai/ha) | Plant response rating, Oilseed Rape [8, 17]
65: Plant response rating, Bluegrass [2, 17] | Plant response rating, Kochia (kochia (Kochia scoparia); [18]) | Oilseed Rape plant response rating [8, 13] | Plant response rating, Oilseed Rape [8, 14] | Plant response rating, Oilseed Rape [8, 19]
0: Plant response rating (scale of 0 to 100), Russian Thistle ([1]; Preemergence, 31 g ai/ha) | Plant response rating, Russian Thistle [1, 16] | Plant response rating (scale of 0 to 100), Buckwheat, Wild ([3]; Preemergence, 31 g ai/ha) | Plant response rating, Buckwheat, Wild [3, 16] | Plant response rating (scale of 0 to 100), Oilseed Rape ([8]; Preemergence, 31 g ai/ha) | Plant response rating, Oilseed Rape [8, 16] | Plant response rating (scale of 0 to 100), Radish, Wild ([10]; Preemergence, 31 g ai/ha) | Plant response rating, Radish, Wild [10, 16]
45: Plant response rating, Bluegrass [2, 16] | Plant response rating, Mustard, Wild [7, 19]
95: Plant response rating, Canarygrass [4, 17] | Plant response rating, Canarygrass [4, 18] | Plant response rating, Radish, Wild [10, 15] | Plant response rating (scale of 0 to 100), Speedwell ([11]; Preemergence, 31 g ai/ha) | Plant response rating, Speedwell [11, 16] | Plant response rating, Speedwell [11, 17]
20: Bluegrass plant response rating [2, 13] | Plant response rating, Buckwheat, Wild [3, 17] | Plant response rating (scale of 0 to 100), Kochia (kochia (Kochia scoparia); Preemergence, 31 g ai/ha) | Plant response rating, Kochia (kochia (Kochia scoparia); [16])
55: Plant response rating, Mustard, Wild [7, 18]
40: Plant response rating, Kochia (kochia (Kochia scoparia); [19])
60: Plant response rating, Galium [6, 16] | Speedwell plant response rating [11, 13]
25: Plant response rating, Oilseed Rape [8, 18]
85: Plant response rating, Russian Thistle [1, 15] | Plant response rating, Canarygrass [4, 15] | Plant response rating (scale of 0 to 100), Canarygrass ([4]; Preemergence, 31 g ai/ha) | Plant response rating, Canarygrass [4, 16] | Plant response rating, Field Violet [5, 14] | Plant response rating, Field Violet [5, 16] | Plant response rating, Galium [6, 17] | Plant response rating, Oilseed Rape [8, 15] | Radish, Wild plant response rating [10, 13] | Plant response rating, Radish, Wild [10, 14] | Plant response rating, Speedwell [11, 19] | Plant response rating, Windgrass [12, 14] | Plant response rating, Windgrass [12, 15]
50: Plant response rating, Bluegrass [2, 15] | Plant response rating, Kochia (kochia (Kochia scoparia); [14])
75: Plant response rating, Russian Thistle [1, 19] | Bluegrass plant response rating [2, 18] | Canarygrass plant response rating [4, 13] | Plant response rating, Canarygrass [4, 19] | Plant response rating (scale of 0 to 100), Field Violet ([5]; Preemergence, 31 g ai/ha) | Plant response rating, Field Violet [5, 19] | Plant response rating, Kochia (kochia (Kochia scoparia); [15]) | Pigweed plant response rating [9, 13] | Plant response rating, Windgrass [12, 16]
30: Plant response rating (scale of 0 to 100), Bluegrass ([2]; Preemergence, 31 g ai/ha) | Plant response rating, Bluegrass [2, 19] | Plant response rating, Kochia (kochia (Kochia scoparia); [17]) | Plant response rating, Mustard, Wild [7, 17] | Plant response rating, Radish, Wild [10, 18]
35: Plant response rating, Russian Thistle [1, 18] | Plant response rating, Bluegrass [2, 14] | Kochia plant response rating (kochia (Kochia scoparia); [13]) | Mustard, Wild plant response rating [7, 13] | Plant response rating, Radish, Wild [10, 17]
90: Plant response rating, Field Violet [5, 15] | Plant response rating, Pigweed [9, 15] | Plant response rating (scale of 0 to 100), Pigweed ([9]; Preemergence, 31 g ai/ha) | Plant response rating, Pigweed [9, 19] | Plant response rating, Windgrass [12, 17]
15: Plant response rating, Russian Thistle [1, 17] | Plant response rating (scale of 0 to 100), Galium ([6]; Preemergence, 31 g ai/ha) | Plant response rating, Mustard, Wild [7, 16]
70: Russian Thistle plant response rating [1, 13] | Plant response rating, Mustard, Wild [7, 14] | Plant response rating, Mustard, Wild [7, 15] | Windgrass plant response rating [12, 13] | Plant response rating (scale of 0 to 100), Windgrass ([12]; Preemergence, 31 g ai/ha)
